Results from patent US20110301217A1, “Selective Glycosidase Inhibitors and Uses Thereof” (priority 2008, published 2011).
pKi: −log10 of the molar value.

Molecular target: T1, O-GlcNAcase (Homo sapiens, UniProt O60502)
T1 sequence (O60502 1-916): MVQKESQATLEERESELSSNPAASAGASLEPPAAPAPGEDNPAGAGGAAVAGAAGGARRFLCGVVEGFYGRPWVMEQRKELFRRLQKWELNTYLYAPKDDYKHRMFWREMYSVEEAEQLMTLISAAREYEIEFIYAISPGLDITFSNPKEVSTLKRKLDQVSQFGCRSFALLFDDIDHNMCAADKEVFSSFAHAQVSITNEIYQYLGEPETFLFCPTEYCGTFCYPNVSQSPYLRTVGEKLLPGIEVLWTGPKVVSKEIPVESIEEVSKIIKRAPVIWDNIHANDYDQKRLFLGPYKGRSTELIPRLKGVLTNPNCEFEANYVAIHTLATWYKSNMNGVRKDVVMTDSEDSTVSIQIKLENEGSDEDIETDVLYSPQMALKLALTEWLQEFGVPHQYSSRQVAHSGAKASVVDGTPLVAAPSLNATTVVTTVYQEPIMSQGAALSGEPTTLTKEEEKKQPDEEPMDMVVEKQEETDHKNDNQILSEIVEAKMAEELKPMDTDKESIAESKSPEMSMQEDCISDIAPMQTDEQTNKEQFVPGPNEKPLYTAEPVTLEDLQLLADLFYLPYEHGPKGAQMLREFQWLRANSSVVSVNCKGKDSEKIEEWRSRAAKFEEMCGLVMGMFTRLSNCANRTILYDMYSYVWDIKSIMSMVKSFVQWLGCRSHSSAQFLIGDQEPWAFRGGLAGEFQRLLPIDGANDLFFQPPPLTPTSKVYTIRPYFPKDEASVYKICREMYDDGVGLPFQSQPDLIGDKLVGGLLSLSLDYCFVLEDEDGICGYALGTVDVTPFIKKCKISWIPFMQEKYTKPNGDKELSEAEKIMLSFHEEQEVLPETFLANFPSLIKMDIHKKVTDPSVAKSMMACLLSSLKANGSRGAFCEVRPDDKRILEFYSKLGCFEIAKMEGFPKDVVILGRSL
Experiment: Assay for determination of KI values for inhibition of O-GlcNAcase activity (pNP-GlcNAc substrate)
Format: biochemical
Conditions: PBS pH 7.4, 0.5 mM pNP-GlcNAc, 37° C., Dixon plots
Procedure: Assay for Determination of KI Values for Inhibition of O-GlcNAcase Activity
Experimental procedure for kinetic analyses: Enzymatic reactions are carried out in PBS buffer (pH 7.4) using pNP-GlcNAc as a substrate (0.5 mM) and monitored continuously at 37° C. at 400 nm using a Cary 3E UV-VIS spectrophotometer equipped with a Peltier temperature controller. Reactions are pre-heated in a 500 μL quartz cuvette for approximately 5 minutes followed by addition of 10 μL enzyme via syringe (final enzyme concentration 0.002 mg/mL). Reaction velocities are determined by linear regression of the linear region of the reaction progress curve between the first and third minutes. An inhibitor concentration range of 1/5 to 5 times KI is used in each case.
All KI values are determined using linear regression of Dixon plots.

CC(=O)NC[C@H]1N[C@H](CO)[C@@H](O)[C@@H]1O [Compound 2, N-(((2R,3R,4R,5R)-3,4-dihydroxy-5-(hydroxymethyl)pyrrolidin-2-yl)methyl)acetamide]
pKi: 6.07
